The record followed here is patent publication US9861116B2, “Pet food compositions for inducing a satiety response” (Hill's Pet Nutrition, Inc., priority 2010, dated 2018).

One assay concerns LEPR. The assay can be described thus: Affymetrix feline GeneChip gene expression analysis, LEPR. The class given is cell-based. As to conditions: in all cell lines tested (CCL-150, CCL-176, CRL-2032, CCL-94); amount tested 0.005 mg/mL, 0.05 mg/mL; treatment intensity/control intensity. On the procedure:
(§1) Gene expression was analyzed using proprietary feline GeneChip® Arrays prepared by Affymetrix, Inc., Santa Clara, Calif. 95051. Total RNA is reverse transcribed into cDNA. The cDNA is used to generate cRNA which is fragmented and used as probes for GeneChip hybridization. The gene chip is washed and the hybridization signal is measured with an Affymetrix laser scanner. The hybridization data is then validated and normalized for further analysis.
(§2) Materials: Affymetrix provided most of the reagents and kit. Other reagents listed in the Affymetrix Manual but not supplied in the kit were obtained separately. Refer to GeneChip Expression Analysis Technical Manual (701021 Rev.4) for the details.
(§3) Equipment. […]
(§4) Affymetrix gene chips are used to determine the effect of various test substances or ingredients on gene expression in four feline cell lines and appropriate controls. […] Gene expression was measured for the treatment cell lines and controls. The gene expression data was determined to be either “up” or “down”-regulated for any given treatment. The decision on whether a gene is “up” or “down” is based on the fold change, which is calculated as treatment intensity/control intensity for each individual probe.

A further assay concerns NPY. The assay can be described thus: Affymetrix feline GeneChip gene expression analysis, NPY. Format: cell-based. The conditions noted are these: in two cell lines tested, amount tested 0.003 mg/mL, 0.03 mg/mL, treatment intensity/control intensity. As to the method: as §1, §2, §3, §4

With `Oc1ccc(C=Cc2cc(O)cc(O)c2)cc1` [Resveratrol], the “Fold Change (gene expression, LEPR)” value in the assay on LEPR is recorded as 1.96 (in all cell lines.

`CC1=C(/C=C/C(C)=C/C=C/C(C)=C/C=C/C=C(C)/C=C/C=C(C)/C=C/C2=C(C)CCCC2(C)C)C(C)(C)CCC1` [Beta-Carotene]: the “Fold Change (gene expression, NPY)” value with NPY is −1.75 (in two cell.
